Measured values reported in ChEMBL document CHEMBL1140633, “The application of 3D-QSAR studies for novel cannabinoid ligands substituted at the C1' position of the alkyl side chain on the structural requirements for binding to cannabinoid receptors CB1 and CB2” (J Med Chem, 2007).

Key:
[1] = target: Cannabinoid receptor 1 (Homo sapiens, UniProt P21554); assay: Binding affinity to CB1 receptor
[2] = target: Cannabinoid receptor 2 (Homo sapiens, UniProt P34972); assay: Binding affinity to CB2 receptor
Cannabinoid receptor 2, sequence (P34972 whole entry): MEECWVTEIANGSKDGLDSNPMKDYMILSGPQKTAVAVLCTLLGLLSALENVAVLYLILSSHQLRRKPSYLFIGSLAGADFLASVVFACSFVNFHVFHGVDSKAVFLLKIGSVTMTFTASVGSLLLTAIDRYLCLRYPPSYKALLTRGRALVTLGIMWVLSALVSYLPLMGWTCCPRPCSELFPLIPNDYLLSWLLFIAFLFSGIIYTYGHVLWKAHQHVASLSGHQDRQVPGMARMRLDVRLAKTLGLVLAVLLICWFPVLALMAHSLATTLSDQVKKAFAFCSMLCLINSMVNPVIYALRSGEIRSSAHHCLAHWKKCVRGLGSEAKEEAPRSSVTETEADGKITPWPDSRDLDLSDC

Cannabinoid receptor 1, sequence (P21554 whole entry): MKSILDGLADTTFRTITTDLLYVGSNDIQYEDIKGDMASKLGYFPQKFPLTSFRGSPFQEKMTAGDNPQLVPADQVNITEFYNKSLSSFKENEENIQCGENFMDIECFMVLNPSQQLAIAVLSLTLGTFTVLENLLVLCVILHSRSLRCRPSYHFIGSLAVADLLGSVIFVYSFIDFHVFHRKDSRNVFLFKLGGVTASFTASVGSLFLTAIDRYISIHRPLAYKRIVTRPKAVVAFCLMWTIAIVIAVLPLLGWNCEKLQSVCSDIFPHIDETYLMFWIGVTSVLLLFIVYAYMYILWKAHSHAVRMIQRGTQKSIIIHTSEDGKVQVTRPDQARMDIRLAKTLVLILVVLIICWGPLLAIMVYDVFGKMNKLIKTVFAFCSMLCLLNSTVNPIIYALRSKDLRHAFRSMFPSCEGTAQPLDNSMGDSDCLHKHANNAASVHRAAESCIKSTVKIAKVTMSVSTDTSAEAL

SMILES | Ki [1] [nM] | Ki [2] [nM]
CC1=CC[C@@H]2[C@@H](C1)c1c(O)cc(CCCCCN=[N+]=[N-])cc1OC2(C)C | 19 | 
CCCCCCC1(c2cc(O)c3c(c2)OC(C)(C)[C@@H]2CC=C(C)C[C@@H]32)OCCO1 | 0.52 | 0.22
CCCCCCC1(c2cc(O)c3c(c2)OC(C)(C)[C@@H]2CC=C(C)C[C@@H]32)SCCCS1 | 1.8 | 3.6
CCCCCCC1(c2cc(O)c3c(c2)OC(C)(C)[C@@H]2CC=C(C)C[C@@H]32)CCCC1 | 0.45 | 1.92
CC1=CC[C@@H]2[C@@H](C1)c1c(O)cc(C3SCCS3)cc1OC2(C)C | 168 | 103
CCCCCCC1(c2cc(O)c3c(c2)OC(C)(C)[C@@H]2CC=C(C)C[C@@H]32)CC1(Br)Br (stereo partly specified) | 0.71 | 1.03
CCCCCCC1(c2cc(O)c3c(c2)OC(C)(C)[C@@H]2CC=C(C)C[C@@H]32)CC1(Cl)Cl (stereo partly specified) | 1.27 | 0.29
CC1=CC[C@@H]2[C@@H](C1)c1c(O)cc(C(C)(C)CCCCOc3ccc(C#N)cc3)cc1OC2(C)C | 1.5 | 1.1
CC1=CC[C@@H]2[C@@H](C1)c1c(O)cc(C(C)(C)CCCCC(=O)NN3CCCCC3)cc1OC2(C)C | 4.5 | 3.2
CC1=CC[C@@H]2[C@@H](C1)c1c(O)cc(C(C)(C)CCCCCC#N)cc1OC2(C)C | 0.2 | 2.9
CCCCCCC1(c2cc(O)c3c(c2)OC(C)(C)[C@@H]2CC=C(C)C[C@@H]32)CC1 | 0.44 | 0.86
CC1=CC[C@@H]2[C@@H](C1)c1c(O)cc(C(C)(C)CCCCBr)cc1OC2(C)C | 0.43 | 
CCc1ccc(-c2cc(O)c3c(c2)OC(C)(C)[C@@H]2CC=C(C)C[C@@H]32)cc1 | 119 | 51.7
CC1=CC[C@@H]2[C@@H](C1)c1c(O)cc(C3(C#N)CCCCC3)cc1OC2(C)C | 8.26 | 3.86
CCCc1ccc(-c2cc(O)c3c(c2)OC(C)(C)[C@@H]2CC=C(C)C[C@@H]32)cc1 | 57.8 | 108
CC1=CC[C@@H]2[C@@H](C1)c1c(O)cc(C3(C#N)CCCC3)cc1OC2(C)C | 27.9 | 25.2
C=C(C)C1CCC(C)=C[C@H]1c1c(O)cc(-c2cccc3ccccc23)cc1O (stereo partly specified) | 754 | 222
C=C(C)C1CCC(C)=C[C@H]1c1c(O)cc(C2(C#N)CCCC2)cc1O (stereo partly specified) | 255 | 105
C=C(C)C1CCC(C)=C[C@H]1c1c(O)cc(C2(CCCCCC)CC2(Cl)Cl)cc1O (stereo partly specified) | 666 | 32.9
C=C(C)C1CCC(C)=C[C@H]1c1c(O)cc(C2(CCCCCC)SCCS2)cc1O (stereo partly specified) | 136 | 50.4
C=C(CCCCCC)c1cc(O)c2c(c1)OC(C)(C)[C@@H]1CC=C(C)C[C@@H]21 | 2.17 | 3.3

SMILES | Ki [1] [nM] | Ki [2] [nM]
C=C(C)C1CCC(C)=C[C@H]1c1c(O)cc(-c2ccc(C)cc2)cc1O (stereo partly specified) | 638 | 374
CCCC(C)(C)c1cc(O)c2c(c1)OC(C)(C)[C@@H]1CC=C(C)C[C@@H]21 | 10.9 | 
CCCCCC(C)(C)c1cc(O)c2c(c1)OC(C)(C)[C@@H]1CC=C(C)C[C@@H]21 | 2.7 | 
CC1=CC[C@@H]2[C@@H](C1)c1c(O)cc(CCCC(C)C)cc1OC2(C)C | 141 | 
CC1=CC[C@@H]2[C@@H](C1)c1c(O)cc(C(C)(C)C3CCCC3)cc1OC2(C)C | 0.34 | 0.39
CC1=CC[C@@H]2[C@@H](C1)c1c(O)cc(C(C)(C)C3CCCCCC3)cc1OC2(C)C | 0.94 | 0.22
CC1=CC[C@@H]2[C@@H](C1)c1c(O)cc(C(C)(C)C)cc1OC2(C)C | 14 | 
CCCCCCC1(c2cc(O)c3c(c2)OC(C)(C)[C@@H]2CC=C(C)C[C@@H]32)Sc2ccccc2S1 | 56.9 | 257
CCCCCCC1(c2cc(O)c3c(c2)OC(C)(C)[C@@H]2CC=C(C)C[C@@H]32)SC(C)C(C)S1 (stereo partly specified) | 32.3 | 19.7
CC1=CC[C@@H]2[C@@H](C1)c1c(O)cc(C(C)(C)CCCCC#N)cc1OC2(C)C | 1.75 | 1.1
CC1=CC[C@@H]2[C@@H](C1)c1c(O)cc(-c3cccc4ccccc34)cc1OC2(C)C | 11.7 | 9.39
CC1=CC[C@@H]2[C@@H](C1)c1c(O)cc(-c3ccc(C)cc3)cc1OC2(C)C | 95.5 | 71.8
C=C(C)C1CCC(C)=C[C@H]1c1c(O)cc(C2(CCCCCC)CC2(Br)Br)cc1O (stereo partly specified) | 189 | 63.3
C=C(C)C1CCC(C)=C[C@H]1c1c(O)cc(C2(CCCCCC)CC2)cc1O (stereo partly specified) | 58.7 | 99.2
CCCCC(C)(C)c1cc(O)c2c(c1)OC(C)(C)[C@@H]1CC=C(C)C[C@@H]21 | 3.9 | 
CC1=CC[C@@H]2[C@@H](C1)c1c(O)cc(Oc3ccccc3)cc1OC2(C)C | 297 | 23.6
C=C(C)C1CCC(C)=C[C@H]1c1c(O)cc(C2(C#N)CCCCC2)cc1O (stereo partly specified) | 319 | 111
CCCCCCC(=O)c1cc(O)c2c(c1)OC(C)(C)[C@@H]1CC=C(C)C[C@@H]21 | 21.7 | 83.7
CC1=CC[C@@H]2[C@@H](C1)c1c(O)cc(C34CC5CC(CC(C5)C3)C4)cc1OC2(C)C | 6.8 | 52
CCCCCCC1(c2cc(O)c3c(c2)OC(C)(C)[C@@H]2CC=C(C)C[C@@H]32)SCCS1 | 0.32 | 0.52
CCCCCCCc1cc(O)c2c(c1)OC(C)(C)[C@@H]1CC=C(C)C[C@@H]21 | 22 | 
